{"source": "ChEMBL document CHEMBL4152259", "about": "“Benzoxazinone-containing 3,5-dimethylisoxazole derivatives as BET bromodomain inhibitors for treatment of castration-resistant prostate cancer” (Eur J Med Chem, 2018)", "key": {"CWR22R [1]": {"tested_on": "CWR22R", "experiment": "Antimigratory activity against human 22Rv1 cells at 1 uM after 48 hrs by transwell assay relative to control", "assay_type": "functional"}, "[2]": {"experiment": "Tmax in Sprague-Dawley rat at 2 mg/kg, iv administered as single dose", "assay_type": "ADME, organism-based", "conditions": "in vivo"}, "Homo sapiens [3]": {"species_on_record": "Homo sapiens", "experiment": "Inhibition of BET bromodomain in human LNCAP cells assessed as reduction in full length AR mRNA level at 1 uM after 48 hrs by qPCR assay", "assay_type": "cell-based"}, "Homo sapiens [4]": {"species_on_record": "Homo sapiens", "experiment": "Inhibition of BET bromodomain in human LNCAP cells assessed as reduction in TMPRSS2 mRNA level at 1 uM after 48 hrs by qPCR assay", "assay_type": "cell-based"}, "Homo sapiens [5]": {"species_on_record": "Homo sapiens", "experiment": "Inhibition of BET bromodomain in human 22Rv1 cells assessed as AR-varient protein level at 16 uM after 48 hrs by Western blot assay (reference value: 1)", "assay_type": "cell-based"}, "[6]": {"experiment": "Cmax in Sprague-Dawley rat at 10 mg/kg, po administered as single dose", "assay_type": "ADME, organism-based", "parameters": "dose 10 mg/kg, route oral", "conditions": "in vivo"}, "Homo sapiens [7]": {"species_on_record": "Homo sapiens", "experiment": "Inhibition of BET bromodomain in human 22Rv1 cells assessed as full length AR protein level at 4 uM after 48 hrs by Western blot assay (reference value: 1)", "assay_type": "cell-based"}, "[8]": {"experiment": "Tmax in Sprague-Dawley rat at 10 mg/kg, po administered as single dose", "assay_type": "ADME, organism-based", "conditions": "in vivo"}, "Mus musculus": {"tested_on": "Mus musculus", "experiment": "Toxicity in C.B-17/IcrHsd-Prkdc scid mouse xenografted with human 22Rv1 cells assessed as body weight loss at 50 mg/kg, ip administered 5 times per week measured during compound dosing", "assay_type": "organism-based", "conditions": "in vivo"}, "LNCaP C4-2B": {"tested_on": "LNCaP C4-2B", "experiment": "Inhibition of colony formation in human C4-2B cells after 14 days by crystal violet staining based assay", "assay_type": "functional, cell-based"}, "[9]": {"experiment": "AUC (0 to infinity) in Sprague-Dawley rat at 10 mg/kg, po administered as single dose", "assay_type": "ADME, organism-based", "parameters": "dose 10 mg/kg, route oral, time infinity", "conditions": "in vivo"}, "Homo sapiens [10]": {"species_on_record": "Homo sapiens", "experiment": "Inhibition of BET bromodomain in human 22Rv1 cells assessed as reduction in ERG mRNA level at 1 uM after 48 hrs by qPCR assay", "assay_type": "cell-based"}, "[11]": {"experiment": "Clearance in Sprague-Dawley rat at 2 mg/kg, iv administered as single dose", "assay_type": "ADME, organism-based", "conditions": "in vivo"}, "VCaP [12]": {"tested_on": "VCaP", "experiment": "Inhibition of BET bromodomain in human VCaP cells assessed as reduction in c-Myc mRNA level at 1 uM after 48 hrs by qPCR assay", "assay_type": "cell-based"}, "VCaP [13]": {"tested_on": "VCaP", "experiment": "Inhibition of BET bromodomain in human VCaP cells assessed as reduction in TMPRSS2 mRNA level at 1 uM after 48 hrs by qPCR assay", "assay_type": "cell-based"}, "[14]": {"experiment": "AUC (0 to infinity) in Sprague-Dawley rat at 2 mg/kg, iv administered as single dose", "assay_type": "ADME, organism-based", "parameters": "dose 2 mg/kg, route intravenous, time infinity", "conditions": "in vivo"}, "Homo sapiens [15]": {"species_on_record": "Homo sapiens", "experiment": "Inhibition of BET bromodomain in human 22Rv1 cells assessed as AR-varient protein level at 1 uM after 48 hrs by Western blot assay (reference value: 1)", "assay_type": "cell-based"}, "CWR22R [16]": {"tested_on": "CWR22R", "experiment": "Inhibition of colony formation in human 22Rv1 cells after 14 days by crystal violet staining based assay", "assay_type": "functional, cell-based"}, "[17]": {"experiment": "Volume of distribution at steady state in Sprague-Dawley rat at 2 mg/kg, iv administered as single dose", "assay_type": "ADME, organism-based", "conditions": "in vivo, read-out: Vdss"}, "Homo sapiens [18]": {"species_on_record": "Homo sapiens", "experiment": "Inhibition of BET bromodomain in human 22Rv1 cells assessed as reduction in c-Myc mRNA level at 1 uM after 48 hrs by qPCR assay", "assay_type": "cell-based"}, "Homo sapiens [19]": {"species_on_record": "Homo sapiens", "experiment": "Inhibition of BET bromodomain in human LNCAP cells assessed as reduction in PSA mRNA level at 1 uM after 48 hrs by qPCR assay", "assay_type": "cell-based"}, "Homo sapiens [20]": {"species_on_record": "Homo sapiens", "experiment": "Inhibition of BET bromodomain in human 22Rv1 cells assessed as AR-varient protein level at 4 uM after 48 hrs by Western blot assay (reference value: 1)", "assay_type": "cell-based"}, "LNCaP": {"tested_on": "LNCaP", "experiment": "Antiproliferative activity against human LNCAP cells", "assay_type": "functional, cell-based"}}, "note": "The source made the active and inactive calls. The calls are words filed in the database; no cut-off is given here."}
{"smiles": "Cc1noc(C)c1-c1ccc2c(c1)O[C@H](CC1CC1)C(=O)N2", "values": [{"measurement": "Activity", "setting": "CWR22R [1]", "result": 27, "unit": "%"}, {"measurement": "Tmax", "setting": "[2]", "result": 4.8, "unit": "min"}, {"measurement": "inhibition", "setting": "Homo sapiens [3]", "result": "Active"}, {"measurement": "inhibition", "setting": "Homo sapiens [4]", "result": "Active"}, {"measurement": "fold change (FC)", "setting": "Homo sapiens [5]", "result": 0.06}, {"measurement": "Cmax", "setting": "[6]", "result": 830, "unit": "ng/mL"}, {"measurement": "fold change (FC)", "setting": "Homo sapiens [7]", "result": 0.4}, {"measurement": "Tmax", "setting": "[8]", "result": 30, "unit": "min"}, {"measurement": "Activity", "setting": "Mus musculus", "result": "Non-Toxic"}, {"measurement": "inhibition", "setting": "LNCaP C4-2B", "result": "Dose-dependent effect"}, {"measurement": "AUC(0-inf)", "setting": "[9]", "result": 1460, "unit": "ng·h/mL"}, {"measurement": "inhibition", "setting": "Homo sapiens [10]", "result": "Active"}, {"measurement": "clearance", "setting": "[11]", "result": 33.9, "unit": "mL/min/kg"}, {"measurement": "inhibition", "setting": "VCaP [12]", "result": "Active"}, {"measurement": "inhibition", "setting": "VCaP [13]", "result": "Active"}, {"measurement": "AUC(0-inf)", "setting": "[14]", "result": 997, "unit": "ng·h/mL"}, {"measurement": "fold change (FC)", "setting": "Homo sapiens [15]", "result": 0.83}, {"measurement": "inhibition", "setting": "CWR22R [16]", "result": "Dose-dependent effect"}, {"measurement": "Vd", "setting": "[17]", "result": 1.6, "unit": "L/kg"}, {"measurement": "inhibition", "setting": "Homo sapiens [18]", "result": "Active"}, {"measurement": "inhibition", "setting": "Homo sapiens [19]", "result": "Active"}, {"measurement": "fold change (FC)", "setting": "Homo sapiens [20]", "result": 0.45}]}
{"smiles": "Cc1sc2c(c1C)C(c1ccc(Cl)cc1)=N[C@@H](CC(=O)OC(C)(C)C)c1nnc(C)n1-2", "values": [{"measurement": "IC50", "setting": "LNCaP", "result": 110, "unit": "nM"}]}
